From publication PMC4937426, “Dcsbis (PA2771) from Pseudomonas aeruginosa is a highly active diguanylate cyclase with unique activity regulation” (Scientific Reports, 2016)

Columns and labels:
[1] = molecular target: T1, Dcsbis-GGDEF; Dcsbis (173-341) (Pseudomonas aeruginosa, UniProt Q9I072); assay: coupled spectrophotometric pyrophosphate assay; assay type: biochemical; conditions: turnover only (residual activity)
T1 construct: gene PA2771

WspR = WspR (Pseudomonas aeruginosa, UniProt Q9HXT9); assay: coupled spectrophotometric pyrophosphate assay; assay type: biochemical; conditions: turnover only, same molar concentration as Dcsbis
Chain of WspR (Q9HXT9 entry or part of it): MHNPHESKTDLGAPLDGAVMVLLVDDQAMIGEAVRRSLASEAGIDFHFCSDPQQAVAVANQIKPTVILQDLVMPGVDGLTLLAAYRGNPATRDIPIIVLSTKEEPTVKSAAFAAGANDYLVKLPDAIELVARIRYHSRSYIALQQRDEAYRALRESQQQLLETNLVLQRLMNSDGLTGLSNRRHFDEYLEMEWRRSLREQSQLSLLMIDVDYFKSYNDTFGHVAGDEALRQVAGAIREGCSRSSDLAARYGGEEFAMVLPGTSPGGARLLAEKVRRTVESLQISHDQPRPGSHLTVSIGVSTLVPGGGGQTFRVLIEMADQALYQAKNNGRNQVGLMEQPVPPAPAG

[2] = molecular target: T2, Dcsbis (PA2771), full-length (Pseudomonas aeruginosa, UniProt Q9I072); assay: coupled spectrophotometric pyrophosphate assay, Lineweaver-Burk with […] c-di-GMP; assay type: biochemical; conditions: GTP substrate; product inhibition, mainly competitive; Ki not given
T2 construct: homodimer
T2 sequence (Q9I072 entry or part of it): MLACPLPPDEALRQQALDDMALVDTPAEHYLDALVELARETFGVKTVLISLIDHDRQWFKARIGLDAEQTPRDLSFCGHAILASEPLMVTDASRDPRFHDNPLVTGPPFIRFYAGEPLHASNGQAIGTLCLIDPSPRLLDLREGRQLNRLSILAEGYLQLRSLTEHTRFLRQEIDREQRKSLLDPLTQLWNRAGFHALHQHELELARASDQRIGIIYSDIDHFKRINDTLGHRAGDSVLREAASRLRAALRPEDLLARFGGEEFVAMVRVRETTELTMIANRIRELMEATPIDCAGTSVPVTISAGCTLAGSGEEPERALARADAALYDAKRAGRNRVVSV

[3] = molecular target: T1, Dcsbis-GGDEF; Dcsbis (173-341); assay: X-ray crystal structure, […] Å; assay type: binding; conditions: I-site; two mutually intercalated c-di-GMP molecules bridging a GGDEF dimer; Arg251, Asp254, Arg271, Arg282
[4] = system: Nc1nc2c(ncn2[C@@H]2O[C@H](COP(=O)(O)OP(=O)(O)OP(=O)(O)O)[C@@H](O)[C@H]2O)c(=O)[nH]1; assay: purified protein; conditions: without c-di-GMP; 128-512 μM GTP

T1 sequence (Q9I072 entry or part of it): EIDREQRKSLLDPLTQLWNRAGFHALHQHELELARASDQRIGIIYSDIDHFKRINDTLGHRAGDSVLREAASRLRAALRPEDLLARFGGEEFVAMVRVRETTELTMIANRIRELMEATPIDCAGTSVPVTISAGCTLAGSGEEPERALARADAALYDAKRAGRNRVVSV

For Nc1nc2c(ncn2[C@@H]2O[C@H](COP(=O)(O)OP(=O)(O)OP(=O)(O)O)[C@@H](O)[C@H]2O)c(=O)[nH]1 [GTP], the “coupled spectrophotometric pyrophosphate assay” value [1] was “the GGDEF domain of Dcsbis, compared with the full-length Dcsbis, exhibited only residual DGC activity” and the “coupled spectrophotometric pyrophosphate assay” value (WspR) was “DGC activity assays were performed for the three proteins at the same molar concentration”.
For Nc1nc2c(ncn2[C@@H]2O[C@@H]3COP(=O)(O)O[C@H]4[C@@H](O)[C@H](n5cnc6c(=O)[nH]c(N)nc65)O[C@@H]4COP(=O)(O)O[C@H]3[C@H]2O)c(=O)[nH]1 [c-di-GMP], the “coupled spectrophotometric pyrophosphate assay, Lineweaver-Burk with 50 μM c-di-” value [2] was “The greatly increased Km suggests that c-di-GMP mainly binds to the active site” and the “X-ray crystal structure, 2.5 Å” value [3] was “This extra density may be explained by building in two mutually intercalated c-di-GMP molecules”.
Work on “Dcsbis (PA2771), full-length (Pseudomonas aeruginosa PAO1)” yielded a Km [4] of 88 µM.
